Test results from patent publication US8026070B2 (priority 2005, dated 2011).
Values joined by “and” are separate entries in the source; they are usually repeats but may differ in a detail not shown here. Identical values can stand only once. Like-named read-outs stand apart in the source and are kept apart here.

Test system: human recombinant PrP spiked into human plasma

NCCCCCC(=O)O [ACA, 6-aminohexanoic acid]
Effect on detection of spiked human recombinant prion protein in human plasma: enhanced the detection | Non-specific binding, optical density at 450 nm: 0.4665 and 0.4128 and 0.4549 | Only Plasma, optical density at 450 nm: 0.4036 and 0.4098 and 0.3737 | Plasma with human recombinant PrP, optical density at 450 nm: 0.52 and 0.5723 and 0.6507 | Ratio of Signals (ratio of signals from spiked plasma and only plasma samples): 1.3 and 1.4 and 1.7

NC[C@H]1CC[C@H](C(=O)O)CC1 [AMCHA, trans-(aminomethyl)cyclohexanecarboxylic acid]
Ratio of Signals (ratio of signals from spiked plasma and only plasma samples): 1.7 and 1.6 and 1.8 | Effect on detection of spiked human recombinant prion protein in human plasma (all concentrations (1, 10, 100 mM) in the sample preparation buffer): enhanced the detection
